The target in one experiment is T1, human PD-L1 protein (Homo sapiens, UniProt Q9NZQ7).
T1 construct: purchased Acro Biosystems PD1-H5229
In words: Thermal shift: melting temperature of PD-L1 protein. The format is binding. Particulars: read-out: ΔTm (° C.). The procedure: Test Embodiment 4. Test of Combination of the Compounds of the Present Disclosure to Improve the Stability (Melting Temperature) of PD-L1 Protein Experimental purpose: To test the ability of compounds to enhance the stability of PD-L1 protein and increase the melting temperature of the protein. Experimental method: […] A solution containing […] HEPES, SYPRO Orange, and 150 mM NaCl was prepared as experimental buffer, and human PD-L1 protein was added at a final concentration of 2 μM. […] PCR tube was put into the PCR machine, and the melt curve function was selected to detect the melting temperature of PD-L1 protein in different treatment groups (heated from 25° C. to 95° C., 0.03° C./s). The experimental data file of the PCR instrument was imported into the thermal shift software to obtain the melting temperature (Tm) of each treatment group, and the Tm of the DMSO vehicle control group was subtracted to obtain the change value (ΔTm) of the melting temperature, as shown in the following table: […]

In experiment [1] the target is T2, PD-L1 protein on the surface of MC38-hPDL1 tumor cells (Homo sapiens, UniProt Q9NZQ7).
T2 construct: expressed in transfected cells; host or cells: MC38-hPDL1 (mouse colon cancer cells)
In words: Induction of endocytosis of PD-L1 on the surface of tumor cells (flow cytometry). The format is cell-based. To be noted: 16 hours incubation; for Emax: MC38-hPDL1 cells, read-out: MC38 maximum endocytosis rate; for IC50: inducing endocytosis of PD-L1, MC38-hPDL1 cells, read-out: MC38 IC50. The source says:
Test Embodiment 2. Test of the Activity of Compounds of the Present Disclosure on Inducing the Endocytosis of PD-L1 Protein on the Surface of Tumor Cells
Experimental purpose: The purpose of this test embodiment was to test the activity of the compound on inducing the endocytosis of PD-L1 on the surface of tumor cells.
Experimental method: In order to test the activity of the compound on inducing the endocytosis of PD-L1, in this experiment, the activity of the compound on inducing the endocytosis of PD-L1 was tested by detecting the change degree of PD-L1 on the tumor cell surface with fluorescently labeled anti-PD-L1 antibody, and the IC50 of activity of the compound on inducing the endocytosis of PD-L1 was obtained.
The mouse colon cancer cells MC38-hPDL1 with high expression of hPD-L1 were collected, and adjusted to a suitable density and plated in a 24-well plate, and placed in a 37° C., 5% CO2 incubator to adhere overnight. Compounds were prepared into different concentrations by medium and added to a 24-well plate, and a vehicle control well was set up. After the cells were incubated in a 37° C., 5% CO2 incubator for 16 hours, the 24-well plate was taken out, and MC38-hPDL1 cells with different treatments in the plate were collected. After the cells were washed once with FACS buffer (PBS containing 0.5% BSA), and the cells were prepared to an appropriate density with FACS buffer. PE Mouse Anti-Human CD274 antibody (BD Pharmingen #557924) was added, and the cells were shaken at room temperature and incubated for 30 minutes without light, then the cells were washed twice with FACS buffer, resuspended in 100 μL of PBS, and a flow cytometer was used to detect the fluorescent signal on the cell surface, and the isotype control was set as a negative control.
The endocytosis rate of the compounds was calculated from the fluorescence signals of different treatment groups, and the compound concentration and endocytosis rate were fitted by nonlinear regression using GraphPad Prism software, and IC50 values were obtained, as shown in Table 2.

The target in another experiment is T3, human PD-1/PD-L1 binding (Homo sapiens, UniProt Q9NZQ7).
T3 construct: PD-L1-His protein (19 to 238 amino acids) (Abcam #ab167713); purchased Abcam (PD-L1-His); R&D (PD-1-Fc) ab167713; 1086-PD
In words: Inhibition of human PD-1/PD-L1 binding (TR-FRET/HTRF). To be noted: TR-FRET, PD-L1-His and PD-1-Fc; read-out: PD-1/PD-L1 binding IC50. The procedure, abridged:
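PD-L1-His (aa 19–238, diluted to 10 nM) and PD-1-Fc (aa 25–167, diluted to 20 nM) incubated with compounds (10 μM or 1 μM top, 3-fold, 11 doses) 60 min at room temperature, then anti-6HIS Eu cryptate/anti-human IgG-XL665 added for 3 h RT or overnight 4 °C. HTRF 665/620 nm ratio gave inhibition and IC50.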

[2] abbreviates: compound 10 μM, PD-L1 protein 2 μM, Tm minus DMSO vehicle control.

Like-named read-outs stand apart in the source and are kept apart here.

T3 sequence (Q9NZQ7 19-238): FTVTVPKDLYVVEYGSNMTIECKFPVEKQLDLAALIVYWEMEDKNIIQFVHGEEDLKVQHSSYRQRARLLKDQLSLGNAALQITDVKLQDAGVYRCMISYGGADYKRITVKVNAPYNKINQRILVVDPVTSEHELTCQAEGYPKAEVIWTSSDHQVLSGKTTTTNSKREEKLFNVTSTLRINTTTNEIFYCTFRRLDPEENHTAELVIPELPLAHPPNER
T1 sequence (Q9NZQ7 19-238 limits assumed): as the sequence (Q9NZQ7 19-238) above
T2 sequence (Q9NZQ7 19-290): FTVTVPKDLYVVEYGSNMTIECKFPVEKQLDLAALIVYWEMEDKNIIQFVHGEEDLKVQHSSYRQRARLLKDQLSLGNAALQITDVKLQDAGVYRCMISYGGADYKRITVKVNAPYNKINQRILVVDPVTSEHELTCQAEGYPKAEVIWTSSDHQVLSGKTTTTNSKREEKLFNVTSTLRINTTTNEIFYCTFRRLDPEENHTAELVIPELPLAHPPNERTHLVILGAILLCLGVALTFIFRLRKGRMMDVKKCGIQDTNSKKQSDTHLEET

With `COC(=O)[C@H](CO)NCc1cnc(-c2cccc(-c3cccc(NC(=O)c4nc5c(n4C)CCN(C)C5)c3Cl)c2Cl)nc1OC` [Embodiment 227, Methyl ((2-(2,2′-dichloro-3′-(1,5-dimethyl-4,5,6,7-tetrahydro-1H-imidazo[4,5-c]pyridine-2-carboxamido)-[1,1′-biphenyl]-3-yl)-4-methoxypyrimidin-5-yl)methyl)-L-serinate], the ΔTm at 10 µM at human PD-L1 protein (setting [2]) was 11.9 °C.
Regarding `COc1nc(-c2cccc(-c3cccc(NC(=O)c4nc5c(n4C)CCN(C)C5)c3Cl)c2Cl)ccc1CNCC1(C#N)CC1` [Embodiment 213, N-(2,2′-Dichloro-3′-(5-((((1-cyanocyclopropyl)methyl)amino)methyl)-6-methoxypyridin-2-yl)-[1,1′-biphenyl]-3-yl)-1,5-dimethyl-4,5,6,7-tetrahydro-1H-imidazo[4,5-c]pyridine-2-carboxamide], in experiment [1], the Emax was determined as 96% and the IC50 stood at 4.1 nM. At human PD-L1 protein (setting [2]), the ΔTm at 10 µM came out at 14.5 °C.
On to `COc1nc(-c2cccc(-c3cccc(NC(=O)c4nc5c(n4C)CCN(C)C5)c3Cl)c2Cl)ccc1CN1CC2(C1)CN(C(=O)C1CC1)C2` [Embodiment 187, N-(2,2′-Dichloro-3′-(5-((6-(cyclopropylcarbonyl)-2,6-diazaspiro[3.3]heptan-2-yl)methyl)-6-methoxypyridin-2-yl)-[1,1′-biphenyl]-3-yl)-1,5-dimethyl-4,5,6,7-tetrahydro-1H-imidazo[4,5-c]pyridine-2-carboxamide], for which, in experiment [1], the Emax came to 95% and the IC50 is 1.1 nM. Also, at human PD-L1 protein (setting [2]), the ΔTm at 10 µM came to 21.1 °C.
For `COc1nc(-c2cccc(-c3cccc(NC(=O)c4nc5c(n4C)CCN(C)C5)c3Cl)c2Cl)ccc1CN[C@@H]1CCOC[C@@H]1F` [Embodiment 115, N-(2,2′-Dichloro-3′-(5-((((3R,4R)-3-fluorotetrahydro-2H-pyran-4-yl)amino)methyl)-6-methoxypyridin-2-yl)-[1,1′-biphenyl]-3-yl)-1,5-dimethyl-4,5,6,7-tetrahydro-1H-imidazo[4,5-c]pyridine-2-carboxamide], in experiment [1], the Emax was found to be 93% and the IC50 came out at 5.3 nM. For the same compound, the thermal shift (ΔTm) at 10 µM on human PD-L1 protein is 12.7 °C.
With `COc1nc(-c2cccc(-c3cccc(NC(=O)c4nc5c(n4C)CCN(C)C5)c3Cl)c2Cl)ccc1CN1C2CC1CN(C(=O)C(C)C)C2` [Embodiment 210, N-(2,2′-Dichloro-3′-(5-((3-isobutyryl-3,6-diazabicyclo[3.1.1]heptan-6-yl)methyl)-6-methoxypyridin-2-yl)-[1,1′-biphenyl]-3-yl)-1,5-dimethyl-4,5,6,7-tetrahydro-1H-imidazo[4,5-c]pyridine-2-carboxamide], in experiment [1], the Emax worked out at 88%. Besides, the ΔTm at 10 µM on human PD-L1 protein (setting [2]) worked out at 10.7 °C.
The like results for `COc1nc(-c2cccc(-c3cccc(NC(=O)c4nc5c(n4C)CCN(C)C5)c3Cl)c2Cl)ccc1CN1CC2(C1)CN(C(=O)C(F)(F)F)C2` [Embodiment 189, N-(2,2′-Dichloro-3′-(6-methoxy-5-((6-(2,2,2-trifluoroacetyl)-2,6-diazaspiro[3.3]heptan-2-yl)methyl)pyridin-2-yl)-[1,1′-biphenyl]-3-yl)-1,5-dimethyl-4,5,6,7-tetrahydro-1H-imidazo[4,5-c]pyridine-2-carboxamide] were, in that order, 96% and 19.5 °C.
As for `COc1cc(C(=O)Nc2cccc(-c3cccc(NC(=O)c4nc5c(n4C)CCN(C)C5)c3Cl)c2C)ncc1CNc1cc(C)ccn1` [Embodiment 11, N-(2-Chloro-3′-(4-methoxy-5-(((4-methylpyridin-2-yl)amino)methyl)picolinamido)-2′-methyl-[1,1′-biphenyl]-3-yl)-1,5-dimethyl-4,5,6,7-tetrahydro-1H-imidazo[4,5-c]pyridine-2-carboxamide], the IC50 on human PD-1/PD-L1 binding came out at 5.1 nM. Moreover, in experiment [1], the Emax is 85% and the IC50 came to 8.1 nM.
For `Cc1c(NC(=O)c2cc(C3CC3)c(CO)cn2)cccc1-c1cccc(NC(=O)c2nc3c(n2C)CCN(C)C3)c1Cl` [Embodiment 51, N-(2-Chloro-3′-(4-cyclopropyl-5-(hydroxymethyl)picolinamido)-2′-methyl-[1,1′-biphenyl]-3-yl)-1,5-dimethyl-4,5,6,7-tetrahydro-1H-imidazo[4,5-c]pyridine-2-carboxamide] the same measures were 5.5 nM, 91% and 11.8 nM.
For `COc1cc(-c2cccc(-c3cccc(NC(=O)c4nc5c(n4C)CCN(C)C5)c3Cl)c2C)ncc1CNC1CCOCC1` [Embodiment 59, N-(2-Chloro-3′-(4-methoxy-5-(((tetrahydro-2H-pyran-4-yl)amino)methyl)pyridin-2-yl)-2′-methyl-[1,1′-biphenyl]-3-yl)-1,5-dimethyl-4,5,6,7-tetrahydro-1H-imidazo[4,5-c]pyridine-2-carboxamide] the same measures were 4.7 nM, 85% and 9.6 nM.
On to `CCN1CCc2c(nc(C(=O)Nc3cccc(-c4cccc(NC(=O)c5cc(OC)c(CNc6ccnc(OC)c6)cn5)c4Cl)c3Cl)n2C)C1` [Embodiment 82, N-(2,2′-Dichloro-3′-(4-methoxy-5-(((2-methoxypyridin-4-yl)amino)methyl)picolinamido)-[1,1′-biphenyl]-3-yl)-5-ethyl-1-methyl-4,5,6,7-tetrahydro-1H-imidazo[4,5-c]pyridine-2-carboxamide], for which the IC50 at human PD-1/PD-L1 binding came to 3.9 nM. In experiment [1], the Emax came to 85% and the IC50 amounted to 12 nM.
As to `COc1cc(-c2cccc(-c3cccc(NC(=O)c4nc5c(n4C)CCN(C)C5)c3Cl)c2Cl)ncc1CNC[C@@H]1CCC(=O)N1` [Embodiment 56, (S)—N-(2,2′-Dichloro-3′-(4-methoxy-5-((((5-carbonylpyrrolidin-2-yl)methyl)amino)methyl)pyridin-2-yl)-[1,1′-biphenyl]-3-yl)-1,5-dimethyl-4,5,6,7-tetrahydro-1H-imidazo[4,5-c]pyridine-2-carboxamide], the IC50 on human PD-1/PD-L1 binding turned out to be 2.1 nM. In experiment [1], the Emax turned out to be 91% and the IC50 amounted to 12.2 nM.
Take `C=CCNCc1cnc(C(=O)Nc2cccc(-c3cccc(NC(=O)c4nc5c(n4C)CCN(C)C5)c3Cl)c2C)cc1OC` [Embodiment 41, N-(3′-(5-((Allylamino)methyl)-4-methoxypicolinamido)-2-chloro-2′-methyl-[1,1′-biphenyl]-3-yl)-1,5-dimethyl-4,5,6,7-tetrahydro-1H-imidazo[4,5-c]pyridine-2-carboxamide]: the IC50 at human PD-1/PD-L1 binding amounted to 4 nM. Moreover, in experiment [1], the Emax was 90% and the IC50 was 1.9 nM.
For the compound `COc1cc(C(=O)Nc2cccc(-c3cccc(NC(=O)c4nc5c(n4C)CCN(C)C5)c3Cl)c2C)ncc1CN1CC(F)(CO)COC1=O` (centres unmarked) [Embodiment 22, N-(2-Chloro-3′-(5-((5-fluoro-5-(hydroxymethyl)-2-carbonyl-1,3-oxazinan-3-yl)methyl)-4-methoxypicolinamido)-2′-methyl-[1,1′-biphenyl]-3-yl)-1,5-dimethyl-4,5,6,7-tetrahydro-1H-imidazo[4,5-c]pyridine-2-carboxamide], the IC50 on human PD-1/PD-L1 binding is 5.9 nM; in experiment [1], 14.5 nM. For the same compound, the Emax in experiment [1] came out at 92%.

For the origin of these results see patent US20230105212A1, “BIPHENYL DERIVATIVE INHIBITOR, PREPARATION METHOD THEREFOR AND USE THEREOF” (SHANGHAI HANSOH BIOMEDICAL CO., LTD., priority 2020, published 2023).
